Columns and labels:
rabbit = experiment: Rabbit veno-venous shunt model of thrombosis; type: in vivo
Procedure: In that model, a plastic shunt which contains cotton thread was inserted into abdominal vena cava and thrombus developed inside the shunt under control conditions. The end points of the experiment are the time to occlusion (TTO) and thrombus weight. […] Three doses have been tested in a total of 15 rabbits (5 rabbits in each group): 30 μg/kg+1 μg/kg/min, 60 μg/kg+2 μg/kg/min, and 90 μg/kg+3 μg/kg/min. […] The net thrombus weight was reduced from 56.4±4.3 to 21.3±7.8 mg in that group.

[1] = molecular target: T1, human tissue factor/factor VIIa complex (Homo sapiens, UniProt P08709); experiment: Determination of tissue factor/factor VIIa inhibition (Spectrozyme VIIa); type: biochemical; conditions: read-out: VIIa % inhib. @ 100 μM
T1 construct: 50 μL human factor VIIa (Enzyme Research Laboratories); purchased Enzyme Research Laboratories (factor VIIa); American Diagnostica (tissue factor)
T1 sequence (P08709 213-466 limits assumed): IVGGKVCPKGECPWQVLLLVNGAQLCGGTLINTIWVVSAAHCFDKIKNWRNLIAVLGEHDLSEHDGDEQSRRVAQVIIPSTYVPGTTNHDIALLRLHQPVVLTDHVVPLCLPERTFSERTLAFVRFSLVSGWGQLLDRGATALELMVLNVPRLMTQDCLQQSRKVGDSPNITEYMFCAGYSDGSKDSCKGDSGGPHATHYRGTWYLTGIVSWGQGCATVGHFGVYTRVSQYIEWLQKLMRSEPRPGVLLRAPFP
T1 sequence (P08709 61-212 limits assumed): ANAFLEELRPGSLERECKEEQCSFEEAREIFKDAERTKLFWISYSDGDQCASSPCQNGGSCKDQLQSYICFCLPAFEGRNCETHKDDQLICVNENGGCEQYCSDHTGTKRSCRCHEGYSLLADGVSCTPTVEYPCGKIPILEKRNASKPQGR
T1 sequence (P13726 33-295 partner): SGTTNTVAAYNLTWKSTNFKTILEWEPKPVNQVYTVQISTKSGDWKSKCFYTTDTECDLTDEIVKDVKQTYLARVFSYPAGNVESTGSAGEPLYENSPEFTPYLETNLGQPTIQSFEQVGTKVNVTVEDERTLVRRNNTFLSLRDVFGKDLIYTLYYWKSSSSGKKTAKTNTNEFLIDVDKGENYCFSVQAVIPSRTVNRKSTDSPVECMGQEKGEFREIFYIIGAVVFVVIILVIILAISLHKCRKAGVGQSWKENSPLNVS
Procedure: The ability of compounds to act as inhibitors of the catalytic activity of human tissue factor/factor VIIa complex is assessed by determination of that concentration of test substance that inhibits by 50% (IC50 the ability of a complex of human recombinant tissue factor/factor VIIa to cleave the chromogenic substrate Spectrozyme VIIa (CH3SO2-D-CHA-Arg-pNA*AcOH, American Diagnostica). Typically, 50 μL human factor VIIa (Enzyme Research Laboratories) is incubated for 10 minutes as a 1:1 mixture (5 nM final each) with 95 μL recombinant human tissue factor (American Diagnostica) in a modified HBSA buffer (10 mM Hepes, 5 mM CaCl2, 0.1% BSA, pH 8.0). Then 5 μL of the test substance in DMSO (2% final) is added and incubated for 60 minutes at room temperature. Following preheating to 37° C. for 5 minutes, to this mixture is added 100 μL of Spectrozyme VIIa (500 μM final) in modified HBSA, and the velocity of Spectrozyme VIIa hydrolysis is determined at 37° C. by measuring the optical density at an OD405 nm every 10 seconds over 5 minutes using a ThermoMax® Kinetic Microplate Reader.

human factor Xa [2] = molecular target: T2, human factor Xa (Homo sapiens, UniProt P00742); experiment: Determination of factor Xa IC50 (chromogenic substrate S2765); type: biochemical
T2 construct: human factor Xa (1 nM final, Enzyme Research Laboratories); purchased Enzyme Research Laboratories
T2 sequence (P00742 235-488 limits assumed): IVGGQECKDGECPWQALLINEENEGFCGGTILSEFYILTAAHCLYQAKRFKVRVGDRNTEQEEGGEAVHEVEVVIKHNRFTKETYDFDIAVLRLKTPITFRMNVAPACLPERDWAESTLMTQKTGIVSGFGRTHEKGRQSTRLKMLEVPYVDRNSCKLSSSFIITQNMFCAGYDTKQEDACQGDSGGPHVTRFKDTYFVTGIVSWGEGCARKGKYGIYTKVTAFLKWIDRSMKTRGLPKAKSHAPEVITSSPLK
T2 sequence (P00742 41-179 limits assumed): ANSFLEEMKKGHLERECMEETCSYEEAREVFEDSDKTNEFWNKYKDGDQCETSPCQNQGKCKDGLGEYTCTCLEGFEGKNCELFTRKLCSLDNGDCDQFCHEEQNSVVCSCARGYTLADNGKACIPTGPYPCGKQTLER
Procedure: The ability of compounds to act as inhibitors of human factor Xa catalytic activity is assessed by determination of that concentration of test substance that inhibits by 50% (IC50) the ability of human factor Xa to cleave the chromogenic substrate S2765 (N-CBz-D-Arg-L-Gly-L-Arg-p-nitroanilide. 2HCl, DiaPharma). Typically, 145 μL human factor Xa (1 nM final, Enzyme Research Laboratories) in 10 mM HEPES, 150 mM NaCl, 0.1% BSA, pH 7.4 (HBSA buffer), and 5 μL of test substance in DMSO (2% final) are incubated for 60 minutes at room temperature. Following preheating to 37° C. for 5 minutes, to this mixture is added 100 μL of S2765 (400 μM final) in HBSA buffer. The velocity of S2765 hydrolysis is determined at 37° C. by measuring the initial rate of change of the optical density at OD405 nm every 10 seconds for 5 minutes using a ThermoMax® Kinetic Microplate Reader.

human trypsin = experiment: Determination of trypsin IC50 (chromogenic substrate S2222); type: biochemical
Procedure: The ability of compounds to act as inhibitors of human trypsin catalytic activity is assessed by determination of that concentration of test substance that inhibits by 50% (IC50) the ability of human trypsin to cleave the chromogenic substrate S2222 (N-Bz-L-Ile-L-Glu-L-Gly-L-Arg-p-nitroanilide. HCl, DiaPharma). Typically, 145 μL human trypsin (0.5 nM final) in 10 mM HEPES, 150 mM NaCl, 0.1% BSA, and 5 μL of the test substance in DMSO (2% final) are incubated for 60 minutes at room temperature. Following preheating to 37° C. for 5 minutes, to this mixture is added 100 μL of S2222 in HBSA buffer (100 μM final), and the velocity of S2222 hydrolysis is determined at 37° C. by measuring the optical density at OD 405 nm every 10 seconds over 5 minutes using a ThermoMax® Kinetic Microplate Reader.

human thrombin = molecular target: T3, human thrombin (Homo sapiens, UniProt P00734); experiment: Determination of thrombin IC50 (chromogenic substrate Chromozym TH); type: biochemical
T3 construct: regulates the generation of thrombin from its zymogen prothrombin; purchased Enzyme Research Laboratories
Procedure: The ability of compounds to act as inhibitors of human thrombin catalytic activity is assessed by determination of that concentration of test substance that inhibits by 50% (IC50) the ability of human thrombin to cleave the chromogenic substrate Chromozym TH (Tosyl-Gly-Pro-Arg-pNA*Ac, Boehringer Mannheim). Typically, 145 μL human thrombin (0.75 nM, Enzyme Research Laboratories) in a HPB buffer (10 mM HEPES, 100 mM NaCl, 0.05% BSA, 0.1% PEG-8000, pH 7.4) and 5 μL of test substance in DMSO (2% final) are incubated for 60 minutes at room temperature. Following preheating to 37° C. for 5 minutes, to this mixture is added 100 μL of Chromozym TH (24 μM final) in HPB buffer. The velocity of Chromozym TH hydrolysis is determined at 37° C. by measuring the initial rate of change of the optical density at OD 405 nm every 10 seconds for 5 minutes using a ThermoMax® Kinetic Microplate Reader.

[3] = molecular target: T4, human prothrombinase (PTase) complex (Homo sapiens, UniProt P00742); experiment: In vitro assay for human prothrombinase; type: biochemical; conditions: PTase activity expressed by thrombin activity
T4 construct: 2.5 pM human factor Xa (Enzyme Research Laboratories); purchased Enzyme Research Laboratories
T4 sequence (P00742 235-488 limits assumed): as the sequence (P00742 235-488 limits assumed) above
T4 sequence (P00742 41-179 limits assumed): as the sequence (P00742 41-179 limits assumed) above
T4 sequence (P12259 29-737 partner limits assumed): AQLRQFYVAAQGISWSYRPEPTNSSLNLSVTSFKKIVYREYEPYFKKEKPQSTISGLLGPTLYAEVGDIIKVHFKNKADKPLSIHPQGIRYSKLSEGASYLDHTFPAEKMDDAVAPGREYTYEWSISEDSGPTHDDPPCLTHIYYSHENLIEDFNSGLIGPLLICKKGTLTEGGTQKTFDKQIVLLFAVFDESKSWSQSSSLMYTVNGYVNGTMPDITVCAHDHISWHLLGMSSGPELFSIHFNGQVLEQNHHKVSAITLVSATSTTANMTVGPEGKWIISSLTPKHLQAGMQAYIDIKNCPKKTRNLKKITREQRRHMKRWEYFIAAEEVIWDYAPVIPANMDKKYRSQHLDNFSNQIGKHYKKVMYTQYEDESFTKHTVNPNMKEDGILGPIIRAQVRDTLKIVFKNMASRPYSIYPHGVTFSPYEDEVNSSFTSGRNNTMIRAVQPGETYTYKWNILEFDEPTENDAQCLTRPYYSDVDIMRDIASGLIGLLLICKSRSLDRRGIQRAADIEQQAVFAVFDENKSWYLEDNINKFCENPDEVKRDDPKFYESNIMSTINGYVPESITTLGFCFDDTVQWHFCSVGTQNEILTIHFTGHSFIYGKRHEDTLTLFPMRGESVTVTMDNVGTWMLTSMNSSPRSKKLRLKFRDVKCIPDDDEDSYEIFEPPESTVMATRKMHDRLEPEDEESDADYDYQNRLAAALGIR
T4 sequence (P12259 1574-2224 partner limits assumed): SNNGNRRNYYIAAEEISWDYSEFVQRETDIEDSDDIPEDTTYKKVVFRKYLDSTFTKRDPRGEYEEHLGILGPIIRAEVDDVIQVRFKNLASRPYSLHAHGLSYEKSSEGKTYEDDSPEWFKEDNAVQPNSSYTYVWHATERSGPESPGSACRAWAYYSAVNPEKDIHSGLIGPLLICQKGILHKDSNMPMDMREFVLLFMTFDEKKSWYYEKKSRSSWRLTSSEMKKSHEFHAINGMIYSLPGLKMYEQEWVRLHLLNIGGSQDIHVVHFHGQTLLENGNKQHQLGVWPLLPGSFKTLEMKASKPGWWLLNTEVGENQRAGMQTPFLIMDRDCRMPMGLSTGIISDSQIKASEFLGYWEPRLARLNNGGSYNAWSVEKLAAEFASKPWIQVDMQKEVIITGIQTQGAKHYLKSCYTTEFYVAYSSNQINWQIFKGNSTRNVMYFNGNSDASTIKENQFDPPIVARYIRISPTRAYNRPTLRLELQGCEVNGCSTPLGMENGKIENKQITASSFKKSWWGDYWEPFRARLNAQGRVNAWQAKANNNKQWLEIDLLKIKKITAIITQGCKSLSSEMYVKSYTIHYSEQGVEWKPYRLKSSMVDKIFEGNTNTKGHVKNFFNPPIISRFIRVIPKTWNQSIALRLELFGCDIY
Procedure: For determination of IC50 (PTase) of the compounds of the invention, PTase activity was expressed by thrombin activity.
PTase reaction was performed in 100 μL of mixture containing PTase (20 μM) PCPS (Avanti Polar Lipids following a procedure modified from Barenholz et al., Biochemistry, 1977;16:2806-2810) in a 30:70 ratio, 2.5 nM human factor Va (Enzyme Research Laboratories) and 2.5 pM human factor Xa (Enzyme Research Laboratories) in modified HEPES buffer (10 mM Hepes, 150 mM NaCl, 0.1% PEG-8000, 0.05% BSA, 2.5 mM CaCl2, pH 7.4), 3 μM human prothrombin (Enzyme Research Laboratories) and varied concentrations of the test compounds (1 nM to 100 μM in DMSO, 2% final). Reaction was started by co-incubating PTase with test compound for 60 minutes at room temperature, followed by addition of prothrombin for 6 minutes at room temperature. Next, the reaction was quenched by the addition of 100 μL of 20 mM EDTA. Activity of the thrombin (product) is then measured in the presence of 50 μL S2238 (250 μM final, H-D-Phe-Pip-Arg-pNA*Ac, DiaPharma) as substrate by measuring the change at 37° C. in OD405 nm for 5 minutes at 10 second intervals using a ThermoMax® Kinetic Microplate Reader.

[4] = tested on: pooled plasma from rabbits; experiment: In vitro diluted prothrombin time (dPT) assay, rabbit plasma; conditions: for concentration that causes 2-fold prolongation of baseline dPT: 2X; for concentration that causes 5-fold prolongation of baseline dPT: 5X; for concentration that causes 10-fold prolongation of baseline dPT: 10X
Procedure: (§1) Rat, rabbit, dog, and human blood (typically 1.8 mL) was collected and added to a sodium citrate solution (3.8%) to afford a 1:10 dilution. After centrifugation (2000 g for 10 minutes), the blood plasma was stored at −70° C. to 0° C. […] […] Fibrin formation and the time required for a clot to form were determined using an automated ST4 Clot Detection System in duplicate.

pooled plasma from dogs = experiment: In vitro diluted prothrombin time (dPT) assay, dog plasma; conditions: for concentration that causes 2-fold prolongation of baseline dPT: 2X; for concentration that causes 5-fold prolongation of baseline dPT: 5X; for concentration that causes 10-fold prolongation of baseline dPT: 10X
Procedure: as §1

[5] = tested on: pooled plasma from human volunteers; experiment: In vitro diluted prothrombin time (dPT) assay, human plasma; conditions: for concentration that causes 2-fold prolongation of baseline dPT: 2X; for concentration that causes 5-fold prolongation of baseline dPT: 5X; for concentration that causes 10-fold prolongation of baseline dPT: 10X
Procedure: as §1

human factor Xa [6] = molecular target: T2, human factor Xa; experiment: Determination of factor Xa Ki (fluorogenic S2765); type: biochemical
Procedure: Compounds of the present invention may be prepared for assay by dissolving them in buffer to give solutions ranging in concentrations from 1 to 100 μM. In an assay to determine the inhibitory dissociation constant, Ki, for a given compound, a chromogenic or fluorogenic substrate of factor Xa would be added to a solution containing a test compound and factor Xa; the resulting catalytic activity of the enzyme is spectrophotometrically determined. This assay is well-known to those skilled in the art and is commonly used to determine antithrombotic activity.
For Ki determinations, the assay conditions were essentially the same as above except for the following. The concentration of factor Xa was 50 pM, and that of the substrate, in this case a fluorogenic S2765 (i.e. S2765 with AMC tag instead of pNA, California Peptide Research), was over the range of 10 to 500 μM. The test compound and substrate in HBSA buffer were incubated as above, and the reaction was initiated with enzyme-buffer. The data (steady-state velocity at various concentrations of the substrate and the inhibitors) of the competitive inhibition was analyzed using the methods described by Segel (Enzyme Kinetics, Wiley Interscience Publications, 1993). […]

[7] = 30 μg/kg+1, 60 μg/kg+2, 90 μg/kg+3 μg/kg/min
[8] = highest dose 90 μg/kg+3 μg/kg/min

SMILES | inhibition at 100 µM [1] [%] | IC50 (human factor Xa [2]) [nM] | IC50 (human trypsin) [nM] | IC50 (human thrombin) [nM] | concentration that causes 2-fold prolongation of baseline dPT [4] [µM] | concentration that causes 5-fold prolongation of baseline dPT [4] [µM] | concentration that causes 10-fold prolongation of baseline dPT [4] [μM] | concentration that causes 2-fold prolongation of baseline dPT (pooled plasma from dogs) [µM] | concentration that causes 5-fold prolongation of baseline dPT (pooled plasma from dogs) [µM] | concentration that causes 10-fold prolongation of baseline dPT (pooled plasma from dogs) [μM] | concentration that causes 2-fold prolongation of baseline dPT [5] [µM] | concentration that causes 5-fold prolongation of baseline dPT [5] [µM] | concentration that causes 10-fold prolongation of baseline dPT [5] [μM] | other results
C[C@@H]1CCC[C@H](C)N1CCCCCN1C(=O)C(c2cccc(C(=N)N)c2)Sc2ccccc21 (stereo partly drawn) [Example 3, 3-(4-5-[(2R,6S)-2,6-Dimethylhexahydro-1-pyridinyl]pentyl-3-oxo-3,4-dihydro-2H-1,4-benzothiazin-2-yl)-1-benzenecarboximidamide] | 31 | 108 | 782 | 1780 | – | – | – | – | – | – | – | – | – | –
CC(=N)N1CC[C@H](Oc2ccc([C@H](Cc3ccc4ccc(C(=N)N)cc4c3)C(=O)O)cc2)C1 [DX-9065a, reference compound] | – | – | – | – | 1.4 | 21.8 | 96.8 | 2.5 | 51.1 | 118.6 | 0.06 | 0.53 | 1.3 | –

Further lines, with some results ahead:

inhibition at 100 µM [1] [%] | IC50 (human factor Xa [2]) [nM] | IC50 (human trypsin) [nM] | IC50 (human thrombin) [nM] | SMILES | concentration that causes 2-fold prolongation of baseline dPT [4] [µM] | concentration that causes 5-fold prolongation of baseline dPT [4] [µM] | concentration that causes 10-fold prolongation of baseline dPT [4] [μM] | concentration that causes 2-fold prolongation of baseline dPT (pooled plasma from dogs) [µM] | concentration that causes 5-fold prolongation of baseline dPT (pooled plasma from dogs) [µM] | concentration that causes 10-fold prolongation of baseline dPT (pooled plasma from dogs) [μM] | concentration that causes 2-fold prolongation of baseline dPT [5] [µM] | concentration that causes 5-fold prolongation of baseline dPT [5] [µM] | concentration that causes 10-fold prolongation of baseline dPT [5] [μM] | other results
30 | 7 | 474 | – | C[C@@H]1CCC[C@H](C)N1CCCCCN1C(=O)C(c2cccc(C(=N)N)c2)Oc2ccccc21 (stereo partly drawn) [Example 2, 3-(4-5-[(2R,6S)-2,6-Dimethylhexahydro-1-pyridinyl]pentyl-3-oxo-3,4-dihydro-2H-1,4-benzoxazin-2-yl)-1-benzenecarboximidamide] | – | – | – | – | – | – | – | – | – | net thrombus weight, dose dependence (rabbit; [7]): reduced the net thrombus weight; time to occlusion, dose dependence (rabbit; [7]): dose-dependently prolonged the time to occlusion; ACT (rabbit; all 3 dose groups): only slight increases; animals with no occlusive thrombus formation during the 120-minute test period (rabbit; [8]): 4 out of 5; prolongation of PT (rabbit; [8]): 1.8 fold; prolongation of TT (rabbit; [8]): 1.5 fold; prolongation of aPTT (rabbit; [8]): 5.4 fold; prolongation of bleeding time (rabbit; [8]): 2.5 fold; time to occlusion (TTO) (rabbit; highest dose 90 μg/kg+3 μg/kg/min, bolus via jugular vein + infusion 140 minutes, control 16.8±5.4): 98.2 ± 21.8 min; net thrombus weight (rabbit; highest dose 90 μg/kg+3 μg/kg/min, control 56.4±4.3): 21.3 ± 7.8 mg
29 | < 1 | 380 | 1030 | C[C@@H]1CCC[C@H](C)N1CCCCCN1C(=O)C(c2cc(C(=N)N)ccc2O)Oc2ccccc21 (stereo partly drawn) [Example 5, 3-(4-5-[(2R,6S)-2,6-Dimethyltetrahydro-1(2H)-pyridinyl]pentyl-3-oxo-3,4-dihydro-2H-1,4-benzoxazin-2-yl)4-hydroxybenzenecarboximidamide] | 0.44 | 0.97 | 1.86 | 0.84 | 1.2 | 1.81 | 0.0069 | 0.063 | 0.157 | IC50 [3]: 0.17 nM
37 | 3 | 750 | 1390 | C[C@@H]1CCC[C@H](C)N1CCCCCN1C(=O)[C@H](c2cc(C(=N)N)ccc2O)Oc2ccccc21 [Example 6, 3-((2S)-4-5-[(2R,6S)-2,6-Dimethyltetrahydro-1(2H)-pyridinyl]pentyl-3-oxo-3,4-dihydro-2H-1,4-benzoxazin-2-yl)-4-hydroxybenzenecarboximidamide] | – | – | – | – | – | – | – | – | – | Ki (human factor Xa [6]): 0.076 nM

Reference: US6509335B1, “Benzoxazinoes/benzothiazinones as serine protease inhibitors” (Warner-Lambert Company, priority 1998, dated 2003)
